Assay results reported in patent US8815883B2, “Compounds and methods for inhibiting serotonin synthesis” (The Trustees of Columbia Unviersity in the City of New York, priority 2009, dated 2014).
Entries after “also recorded” stand apart in the source; their conditions may differ. Where a name gives a salt, the structure may show the parent alone.

Tests used:
[1] = molecular target: 5-HT1B receptor (Homo sapiens, UniProt P28222); conditions: selective 5-HT1B receptor antagonist; British Journal of Pharmacology (2003) 138, 71-80; cited from earlier work
[2] = molecular target: rb 5-HT1B receptors (Oryctolagus cuniculus, UniProt P49144); conditions: British Journal of Pharmacology (1997) 120, 153; cited from earlier work
[3] = test system: Lrp5−/− mice; experiment: pCPA treatment of WT and Lrp5−/− mice: bone histomorphometry, serum serotonin, gut TPH1 and brain TPH2 expression; assay type: in vivo; conditions: 300 mg/kg pCPA intraperitoneally three times per week, from 3 weeks to 12 weeks of age
Description: Consistent with the conclusion that the increase in serum serotonin level is responsible fully or partly for the bone phenotype of the Lrp5−/− mice is the discovery that pCPA, a serotonin synthesis inhibitor (Eldridge et al., 1981, Ann. Rev. Physiol. 43:121-135), prevented the appearance of the Lrp5−/− bone phenotype by decreasing serotonin production. WT and Lrp5−/− mice were treated with 300 mg/kg pCPA intraperitoneally three times per week, from 3 weeks to 12 weeks of age (FIG. 7A) and the changes in serum serotonin levels, TPH1 expression in gut and TPH2 expression in brain stem were analyzed. Bone histomorphometry was also performed. […] This rescue of the Lrp5 −/− phenotype was achieved by normalization of the gut TPH1 mRNA and of serum serotonin levels (FIGS. 7C and 7D).
Generation of Lrp5−/− (Kato et al., 2002, J. Cell Biol. 157:303-314) β-cateninfloxed/floxed (Glass et al., 2005, Dev. Cell 8:751-764), α1(I)collagen-cre transgenic (Dacquin et al., 2002, Dev. Dyn. 224:245-251) and Htt−/− (Ansorge et al., 2008, J. Neurosci. 28:199-207) mice were as described previously. Lrp5+/−;Htt+/− double heterozygous mice were generated by crossing Lrp5+/− and Htt+/− mice. Three week-old Wt or Lrp5−/− mice were administered pCPA on alternate days for 9 weeks by i.p. All animal protocols were approved by the Animal Care Committees of Columbia University.
Static histomorphometry measurements were performed as previously described in accordance with standard nomenclature, using the Osteomeasure Analysis System (Osteometrics, Inc) (Ducy et al., 2000, Cell 100:197-207). Four to 9 animals were assigned per group.
Serotonin serum levels were quantified using immunoassay kits from Fitzgerald (Serotonin) and serotonin levels in the different regions of the brain were quantified by HPLC method as described previously (Mann et al., 1992, Arch. Gen. Psychiatry 49:442-446).

[4] = test system: CREB; experiment: Western blot analysis of CREB phosphorylation in primary osteoblasts treated with serotonin; assay type: cell-based, mouse; conditions: serotonin 50 to 100 μM
Description: (§1) Decreased expression of Cyclin D1 is a major feature of both Lrp5 deficiency and serotonin treatment of osteoblasts (FIGS. 1 and 8). One transcription factor that is known to modulate the expression of cyclin genes and is expressed in osteoblasts is CREB (Fu et al., 2005, Cell 122:803-815). Therefore, whether serotonin could decrease CREB activity in these cells was tested. […] Furthermore, a CREB binding site in the Cyclin D1 mouse promoter was identified and it was shown using ChIP assays that serotonin decreased binding of CREB to this promoter (FIG. 9B). These two observations raise the hypothesis that CREB could be mediating serotonin action on osteoblasts.
Osteoblasts were treated in serum-free medium with vehicle or Serotonin (50 to 100 μM, Sigma) for 24 hr. Lysates from primary osteoblasts or crushed frozen bones were prepared in RIPA buffer in the presence of protease and phosphatase inhibitors. Twenty to 60 μg of proteins were separated by SDS-PAGE in reducing conditions and transferred on nitrocellulose membrane using standard protocols. Membranes were incubated with primary antibodies including total or anti-Phospho CREB (Cell Signaling Technology).

[5] = test system: primary osteoblasts; experiment: Real-time PCR analysis of cyclin and osteoblast-specific gene expression in primary osteoblasts treated with serotonin; assay type: cell-based, mouse; conditions: serotonin 50 to 100 μM, 24 hr, vs vehicle
Description: To test whether serotonin regulates the expression of cyclins in osteoblasts, a real-time PCR analysis of cyclin expression in primary osteoblasts treated with serotonin or vehicle was performed. […] In contrast, expression of Runx2, Osteocalcin and Type I collagen was not modified (FIG. 8B).
Calvaria osteoblasts were extracted by triple collagenase/trypsine digestion from 4 day-old CD1 pups and differentiated with ascorbic acid as previously described (Ducy et al., 2000, Cell 100:197-207).
(§2) Osteoblasts were treated in serum-free medium with vehicle or Serotonin (50 to 100 μM, Sigma) for 24 hr. Total RNA were extracted with Trizol (Invitrogen). cDNA were generated using the ABI Reverse transcriptase system and random hexanucleotide primers. Real-time PCR was performed using superarray primers on a Stratagene real time PCR cycler and Actin expression was used as endogenous control. Chromatin immunoprecipitation assays (ChIP) were performed by standard procedures using primary osteoblasts. Microarray analysis was performed as described previously (Glass et al., 2005, Dev. Cell 8:751-764).

[6] = test system: Cyclin D1 mouse promoter; experiment: ChIP analysis of CREB binding to the Cyclin D1 promoter in primary osteoblasts treated with serotonin; assay type: cell-based
Description: as §1, §2

rb 5-HT1B receptors, sequence (P49144 whole entry): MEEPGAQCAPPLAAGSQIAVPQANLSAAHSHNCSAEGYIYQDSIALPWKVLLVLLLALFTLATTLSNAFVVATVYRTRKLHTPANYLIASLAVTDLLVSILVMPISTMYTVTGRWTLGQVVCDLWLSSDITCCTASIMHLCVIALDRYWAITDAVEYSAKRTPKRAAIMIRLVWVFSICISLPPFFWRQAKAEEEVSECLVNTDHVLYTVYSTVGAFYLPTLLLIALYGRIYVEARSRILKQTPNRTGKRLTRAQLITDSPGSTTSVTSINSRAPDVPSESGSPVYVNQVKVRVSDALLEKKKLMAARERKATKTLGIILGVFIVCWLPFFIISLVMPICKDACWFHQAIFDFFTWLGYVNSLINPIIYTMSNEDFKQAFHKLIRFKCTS
5-HT1B receptor, sequence (P28222 whole entry): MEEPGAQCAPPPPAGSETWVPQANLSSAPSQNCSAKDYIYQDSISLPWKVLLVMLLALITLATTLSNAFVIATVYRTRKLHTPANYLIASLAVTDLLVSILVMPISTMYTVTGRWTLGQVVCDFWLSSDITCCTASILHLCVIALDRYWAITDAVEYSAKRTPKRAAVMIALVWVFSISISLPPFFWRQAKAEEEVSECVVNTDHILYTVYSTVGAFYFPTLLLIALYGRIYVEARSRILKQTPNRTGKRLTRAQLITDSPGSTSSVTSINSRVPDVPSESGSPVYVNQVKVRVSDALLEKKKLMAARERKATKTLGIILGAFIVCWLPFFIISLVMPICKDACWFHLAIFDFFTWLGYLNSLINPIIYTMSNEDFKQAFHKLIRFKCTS

CN(C)CCCc1cc(C(=O)Nc2ccc(-c3ccncc3)cc2)ccc1O [GR 55562, 3-[3-(dimethylamino)propyl]-4-hydroxy-N-[4-(4-pyridinyl)phenyl]benzamide dihydrochloride]
Kb [1]: ~100 nM

O=C(c1ccc(F)cc1)C1CCN(CCn2c(=O)[nH]c3ccccc3c2=O)CC1 [ketanserin]
mode of antagonism at rb 5-HT1B receptors [2]: silent, competitive antagonists

CSc1ccc2c(c1)C(N1CCN(C)CC1)Cc1ccccc1S2 (stereo not drawn) [methiothepin]
mode of antagonism at rb 5-HT1B receptors [2]: silent, competitive antagonists

NC(Cc1ccc(Cl)cc1)C(=O)O (stereo not drawn) [pCPA, para-chlorophenylalanine]
gut TPH1 mRNA ([3]; Lrp5−/− mice): normalization | bone abnormalities (bone histomorphometry) ([3]; Lrp5−/− mice, 300 mg/kg): corrects bone abnormalities; also recorded: corrects their low bone phenotype; also recorded: corrected the bone abnormalities | serum serotonin levels ([3]; Lrp5−/− mice, 300 mg/kg): normalizes; also recorded: normalization | bone mass ([3]; WT mice): without overtly affecting bone mass | Brain TPH2 mRNA levels ([3]; treated mice): not affected

NCCc1c[nH]c2ccc(O)cc12 [serotonin, 5-hydroxytryptamine]
CREB phosphorylation [4]: significantly decreased | expression of Cyclin D1 [5]: decreased | expression of Cyclin D2 [5]: decreased | expression of Osteocalcin [5]: not modified | expression of Runx2 [5]: not modified | expression of Type I collagen [5]: not modified | binding of CREB to the Cyclin D1 promoter (ChIP) [6]: decreased
